Experimental data taken from patent publication US10106505B2, “Composition and methods for modulating a kinase cascade” (Athenex, Inc., priority 2012, dated 2018).
Entries after “also recorded” stand apart in the source; their conditions may differ. Where two headings read alike, the source gives them in different places.

Columns and labels:
[1] = system: aggressive brain tumors; assay: Mice with aggressive brain tumors (mouse model of malignant glioma); format: in vivo
Experimental: (§1) Compound 1 is a synthetic, orally bioavailable, novel small molecule microtubule polymerization inhibitor with very high CNS penetration. The efficacy of compound 1 as a novel anti-cancer agent is tested directly using mouse model of malignant glioma. Compound 1 is an orally administered tubulin polymerization inhibitor that binds to a novel site on heterodimeric tubulin, and to a novel conformation of the dimer. Compound 1 can inhibit Src signaling in tumors. Compound 1 has been evaluated in various brain tumor cell lines. […] When administered orally to mice at a dose of 10 mg/kg, the ratio of drug levels in the brain compared to plasma levels was 0.76, indicating excellent blood brain barrier penetration.
(§2) Compound 1 was evaluated in various human and mouse brain tumor cells derived from glioblastoma multiforme, astrocytoma and medulloblastoma. See, e.g., US2011/0281872. […] When administered to mice compound 1 penetrated the brain by 76%, thereby successfully addressing the first major challenge in brain cancer drug discovery. Drugs which are used to treat brain tumors often penetrate only 20% or less.

[2] = Brain penetration after oral administration to mice; format: in vivo; conditions: mouse, 10 mg/kg
Experimental: as §1, §2

[3] = system: various brain tumor cell lines (glioblastoma multiforme, astrocytoma, medulloblastoma); assay: Proliferation of brain tumor cell lines; format: cell-based, human and mouse
Experimental: as §1, §2

[4] = system: human colon cancer cells (HT29); assay: Src substrate phosphorylation in HT29 cells; format: cell-based; conditions: in good correlation with growth inhibitory effects
Excerpt: (§3) Compounds of the invention may be Src signaling inhibitors that bind in the Src peptide substrate site. The activity of various compounds of the invention has been studied in c-Src (527F, constitutively active and transforming) transformed NIH3T3 cells and in human colon cancer cells (HT29).

[5] = system: c-Src (527F, constitutively active and transforming) transformed NIH3T3 cells; assay: Src substrate phosphorylation in c-Src transformed NIH3T3 cells; format: cell-based; conditions: c-Src (527F) transformed NIH3T3 cells; in good correlation with growth inhibitory effects
Excerpt: as §3

[6] = system: survivin; assay: Additional molecular studies on survivin
[7] = system: GL261 intracerebral tumors; assay: GL261 intracerebral tumors in immune-compromised SCID C57BL/6 mice; format: in vivo, SCID version of C57BL/6 mice (B6.CB17-Prkd^cscid/SzJ)
Experimental: (§4) Compound 1 was also evaluated in the orthotropic GL261 glioma model in immune-competent, syngeneic C57BL/6 mice. Mice implanted intracerebrally with 1×1^05 GL261 cells treated with vehicle alone (saline) have a median survival time (MeST) of 21 days (range 18-28). Mice treated by oral compound 1 (30 mg/kg, b.i.d.) have a MeST of 30.5 days ranging 23-32 days. In contrast, when compound 1 is given orally at (30 mg/kg, s.i.d.) the MeST increases to over 120 days, with more than 60% of the treatment group still alive 12 months later (p<0.0001). […] Further experiments were performed using a SCID version of C57BL/6 mice (B6.CB17-Prkd^cscid/SzJ), a mouse model of B6 background, but is immune-compromised.

[8] = system: GL261 glioma; assay: Orthotropic GL261 glioma model in immune-competent, syngeneic C57BL/6 mice; format: in vivo
Experimental: as §4
When given as a single dose per day (s.i.d.) compound 1 led to complete tumor regression in up to 60% of treated mice without further progression. […] This magnitude of anti-tumor effect was not observed in SCID models leading to the possibility that compound 1 may be involved in an anti-tumor immune response.
When given single dose per day (s.i.d.) compound 1 led to complete tumor regression in up to 60% of treated mice without further progression.

[9] = mice with aggressive brain tumors
[10] = immune-compromised SCID mice bearing GL261 intracerebral tumors
[11] = oral 30 mg/kg, b.i.d., C57BL/6, intracerebral GL261

Cn1nnc2c(C(N)=O)ncn2c1=O [Temodar, Temozolamide, reference compound]
rate of tumor growth [1, 9]: only slows the growth rate of the tumors | complete tumor regression ([1]; mice with aggressive brain tumors, comparison drug): does not cause complete tumor regression

O=C(Cc1ccc(-c2ccc(N3CCOCC3)cc2)cn1)NCc1cccc(F)c1 [compound 1, N-(3-fluorobenzyl)-2-(5-(4-morpholinophenyl)pyridin-2-yl)acetamide]
Kp ([2]; brain (relative to plasma), mice, read-out: ratio of drug levels in the brain compared to plasma levels): 0.76 | Kp ([2]; brain, administered to mice, read-out: brain penetration): 0.76 | drug treated mice with complete tumor regression and no reoccurrence within normal full life span [1, 9]: up to 60% | rate of tumor growth [1, 9]: very significantly slows the rate of tumor growth | brain edema ([1]; versus placebo or Temodar treated mice): much less brain edema | growth of brain tumor cells ([3]; human and mouse brain tumor cells derived from glioblastoma multiforme, astrocytoma and medulloblastoma): potently inhibited the growth | GI50 ([3]; various brain tumor cell lines, in all cases, read-out: GI50 (inhibition of proliferation)): < 55 nM | phosphorylation level of known Src protein substrates [4]: reduce the phosphorylation level of known Src protein substrates in a dose-dependent fashion | phosphorylation level of known Src protein substrates [5]: reduce the phosphorylation level of known Src protein substrates in a dose-dependent fashion | expression and localization of intracellular survivin [6]: increased expression and altered the localization of intracellular survivin | tumor outcome after drug was discontinued (observed by MRI) ([7]; SCID mice surviving greater than 45 days): all proceeded to develop lethal GL261 gliomas | median survival time (MeST) [7, 10]: 40 days | survival time range [7, 10]: 29 to 75 days | second GL261 tumor implant challenge ([8]; "cured" / long term survivor immune-competent C57BL/6 mice): rejected a second GL261 tumor implant challenge; also recorded: rejection of a second tumor | median survival time (MeST) [8, 11]: 30.5 days | survival time range [8, 11]: 23 to 32 days | median survival time (MeST) ([8]; oral 30 mg/kg, s.i.d., C57BL/6, intracerebral GL261): over 120 days | treatment group still alive 12 months later ([8]; oral 30 mg/kg, s.i.d., p<0.0001): more than 60% | growth rate of intracerebral GL261 glioma ([8]; relative to control groups, five independent studies): slows the growth rate | treated mice with complete tumor regression without further progression ([8]; single dose per day (s.i.d.)): up to 60%
